Results taken from ChEMBL document CHEMBL3588806, “Generation of Broad-Spectrum Antifungal Drug Candidates from the Natural Product Compound Aureobasidin A” (ACS Med Chem Lett, 2015).
Converted amounts (≈) assume the structure as drawn. The source made the active and inactive calls. No cut-off for these calls is given here. Starred links: 1 amine or outer side, 2 acyl side, 3 side chain; linkers in the order of their positions; H or OH if unused. Non-standard residues stand in square brackets, D forms with d. Residues, ends and D or L forms follow the SMILES beside them. X2 = CN([C@@H](Cc1cccc(-c2cccc(-c3ccccc3)c2)c1)C(=O)[*:2])[*:1]; X4 = CN([C@@H](Cc1cccc(-c2ccc(-c3ccccc3)cc2)c1)C(=O)[*:2])[*:1]; X12 = CC(=O)Nc1ccc(-c2cccc(C[C@@H](C(=O)[*:2])N(C)[*:1])c2)cc1; X15 = CNC(=O)c1ccc(-c2cccc(C[C@@H](C(=O)[*:2])N(C)[*:1])c2)cc1; X7 = CN([C@@H](Cc1cccc(B2OC(C)(C)C(C)(C)O2)c1)C(=O)[*:2])[*:1]; X13 = COc1ccc(-c2cccc(C[C@@H](C(=O)[*:2])N(C)[*:1])c2)cc1; X3 = CN([C@@H](Cc1cccc(-c2ccc(Cl)cc2)c1)C(=O)[*:2])[*:1]; X8 = CN([C@@H](Cc1cccc(-c2ccc(Cl)nc2)c1)C(=O)[*:2])[*:1]; X10 = CCCCCC/C=C/c1cccc(C[C@@H](C(=O)[*:2])N(C)[*:1])c1; X6 = CN([C@@H](Cc1cccc(-c2ccccc2Cl)c1)C(=O)[*:2])[*:1]; X11 = CN([C@@H](Cc1ccc(-c2cccnc2)cc1)C(=O)[*:2])[*:1]; X14 = CN([C@@H](Cc1cccc(C2=CCCCC2)c1)C(=O)[*:2])[*:1]; X9 = CN([C@@H](Cc1cccc(-c2ccncc2)c1)C(=O)[*:2])[*:1]; NMePhe(3-Ph) = CN[C@@H](Cc1cccc(-c2ccccc2)c1)C(=O)O; X5 = CN([C@@H](Cc1cccc(B(O)O)c1)C(=O)[*:2])[*:1]; NMePhe(3-Br) = CN[C@@H](Cc1cccc(Br)c1)C(=O)O; NMePhe(3-I) = CN[C@@H](Cc1cccc(I)c1)C(=O)O; Hmp(2R,3S) = CC[C@H](C)[C@@H](O)C(=O)O; NMeVal(β-OH) = CN[C@H](C(=O)O)C(C)(C)O; NMeD = CN[C@@H](CC(=O)O)C(=O)O; NMeV = CN[C@H](C(=O)O)C(C)C

How the values were obtained:
Format in all cases: functional
[1] = tested on: Aspergillus fumigatus; experiment: Antifungal activity against Aspergillus fumigatus by broth dilution method
[2] = tested on: Candida albicans; experiment: Antifungal activity against Candida albicans by broth dilution method
[3] = Ratio of MIC for Aspergillus fumigatus to MIC for Candida albicans

| SMILES | MIC [1] [µg/mL] | MIC [2] [µg/mL] | Ratio [3] | Activity [2] |
| --- | --- | --- | --- | --- |
| CC[C@H](C)[C@@H]1NC(=O)[C@@H]2CCCN2C(=O)[C@H](Cc2cccc(-c3ccccc3Cl)c2)N(C)C(=O)[C@H](Cc2ccccc2)NC(=O)[C@H](C(C)C)N(C)C(=O)[C@@H]([C@@H](C)CC)OC(=O)[C@H](C(C)(C)O)N(C)C(=O)[C@H](CC(C)C)NC(=O)[C@H](C(C)C)N(C)C1=O (cyclo(F[X6]PI[NMeV]L[NMeVal(β-OH)][Hmp(2R,3S)][NMeV])) | < 1.25 | < 0.5 | > 10 |  |
| CC[C@H](C)[C@@H]1NC(=O)[C@@H]2CCCN2C(=O)[C@H](Cc2cccc(B(O)O)c2)N(C)C(=O)[C@H](Cc2ccccc2)NC(=O)[C@H](C(C)C)N(C)C(=O)[C@@H]([C@@H](C)CC)OC(=O)[C@H](C(C)(C)O)N(C)C(=O)[C@H](CC(C)C)NC(=O)[C@H](C(C)C)N(C)C1=O (cyclo(F[X5]PI[NMeV]L[NMeVal(β-OH)][Hmp(2R,3S)][NMeV])) | > 100 | < 0.05 |  |  |
| CC[C@H](C)[C@@H]1NC(=O)[C@@H]2CCCN2C(=O)[C@H](Cc2cccc(-c3ccc(Cl)cc3)c2)N(C)C(=O)[C@H](Cc2ccccc2)NC(=O)[C@H](C(C)C)N(C)C(=O)[C@@H]([C@@H](C)CC)OC(=O)[C@H](C(C)(C)O)N(C)C(=O)[C@H](CC(C)C)NC(=O)[C@H](C(C)C)N(C)C1=O (cyclo(F[X3]PI[NMeV]L[NMeVal(β-OH)][Hmp(2R,3S)][NMeV])) | < 2.5 | < 0.5 | > 10 |  |
| CC[C@H](C)[C@@H]1NC(=O)[C@@H]2CCCN2C(=O)[C@H](CC(=O)O)N(C)C(=O)[C@H](CC(=O)O)NC(=O)[C@H](C(C)C)N(C)C(=O)[C@@H]([C@@H](C)CC)OC(=O)[C@H](C(C)(C)O)N(C)C(=O)[C@H](CC(C)C)NC(=O)[C@H](C(C)C)N(C)C1=O (cyclo(D[NMeD]PI[NMeV]L[NMeVal(β-OH)][Hmp(2R,3S)][NMeV])) | > 100 | 10 (≈ 9.64 µM) |  |  |
| CC[C@H](C)[C@@H]1NC(=O)[C@@H]2CCCN2C(=O)[C@H](Cc2cccc(-c3ccccc3)c2)N(C)C(=O)[C@H](Cc2ccccc2)NC(=O)[C@H](C(C)C)N(C)C(=O)[C@@H]([C@@H](C)CC)OC(=O)[C@H](C(C)(C)O)N(C)C(=O)[C@H](CC(C)C)NC(=O)[C@H](C(C)C)N(C)C1=O (cyclo(F[NMePhe(3-Ph)]PI[NMeV]L[NMeVal(β-OH)][Hmp(2R,3S)][NMeV])) | < 0.94 | < 0.05 | > 10 |  |
| CC[C@H](C)[C@@H]1NC(=O)[C@@H]2CCCN2C(=O)[C@H](Cc2cccc(C3=CCCCC3)c2)N(C)C(=O)[C@H](Cc2ccccc2)NC(=O)[C@H](C(C)C)N(C)C(=O)[C@@H]([C@@H](C)CC)OC(=O)[C@H](C(C)(C)O)N(C)C(=O)[C@H](CC(C)C)NC(=O)[C@H](C(C)C)N(C)C1=O (cyclo(F[X14]PI[NMeV]L[NMeVal(β-OH)][Hmp(2R,3S)][NMeV])) | > 5 |  |  |  |
| CC[C@H](C)[C@@H]1NC(=O)[C@@H]2CCCN2C(=O)[C@H](Cc2cccc(-c3ccc(C(=O)NC)cc3)c2)N(C)C(=O)[C@H](Cc2ccccc2)NC(=O)[C@H](C(C)C)N(C)C(=O)[C@@H]([C@@H](C)CC)OC(=O)[C@H](C(C)(C)O)N(C)C(=O)[C@H](CC(C)C)NC(=O)[C@H](C(C)C)N(C)C1=O (cyclo(F[X15]PI[NMeV]L[NMeVal(β-OH)][Hmp(2R,3S)][NMeV])) | > 5 |  |  |  |
| CC[C@H](C)[C@@H]1NC(=O)[C@@H]2CCCN2C(=O)[C@H](Cc2cccc(-c3ccncc3)c2)N(C)C(=O)[C@H](Cc2ccccc2)NC(=O)[C@H](C(C)C)N(C)C(=O)[C@@H]([C@@H](C)CC)OC(=O)[C@H](C(C)(C)O)N(C)C(=O)[C@H](CC(C)C)NC(=O)[C@H](C(C)C)N(C)C1=O (cyclo(F[X9]PI[NMeV]L[NMeVal(β-OH)][Hmp(2R,3S)][NMeV])) | < 1.25 | < 0.025 | > 10 |  |

Continued, in another order:

| MIC [1] [µg/mL] | MIC [2] [µg/mL] | SMILES | Ratio [3] | Activity [2] |
| --- | --- | --- | --- | --- |
| 2.5 (≈ 2.12 µM) | 0.031 (≈ 0.0263 µM) | CC[C@H](C)[C@@H]1NC(=O)[C@@H]2CCCN2C(=O)[C@H](Cc2cccc(Br)c2)N(C)C(=O)[C@H](Cc2ccccc2)NC(=O)[C@H](C(C)C)N(C)C(=O)[C@@H]([C@@H](C)CC)OC(=O)[C@H](C(C)(C)O)N(C)C(=O)[C@H](CC(C)C)NC(=O)[C@H](C(C)C)N(C)C1=O (cyclo(F[NMePhe(3-Br)]PI[NMeV]L[NMeVal(β-OH)][Hmp(2R,3S)][NMeV])) |  |  |
| 10 (≈ 8.15 µM) | < 0.5 | CC[C@H](C)[C@@H]1NC(=O)[C@@H]2CCCN2C(=O)[C@H](Cc2cccc(B3OC(C)(C)C(C)(C)O3)c2)N(C)C(=O)[C@H](Cc2ccccc2)NC(=O)[C@H](C(C)C)N(C)C(=O)[C@@H]([C@@H](C)CC)OC(=O)[C@H](C(C)(C)O)N(C)C(=O)[C@H](CC(C)C)NC(=O)[C@H](C(C)C)N(C)C1=O (cyclo(F[X7]PI[NMeV]L[NMeVal(β-OH)][Hmp(2R,3S)][NMeV])) |  |  |
| > 5 | < 5 | CC[C@H](C)[C@@H]1NC(=O)[C@@H]2CCCN2C(=O)[C@H](Cc2cccc(-c3cccc(-c4ccccc4)c3)c2)N(C)C(=O)[C@H](Cc2ccccc2)NC(=O)[C@H](C(C)C)N(C)C(=O)[C@@H]([C@@H](C)CC)OC(=O)[C@H](C(C)(C)O)N(C)C(=O)[C@H](CC(C)C)NC(=O)[C@H](C(C)C)N(C)C1=O (cyclo(F[X2]PI[NMeV]L[NMeVal(β-OH)][Hmp(2R,3S)][NMeV])) |  |  |
| > 5 |  | CC[C@H](C)[C@@H]1NC(=O)[C@@H]2CCCN2C(=O)[C@H](Cc2cccc(-c3ccc(NC(C)=O)cc3)c2)N(C)C(=O)[C@H](Cc2ccccc2)NC(=O)[C@H](C(C)C)N(C)C(=O)[C@@H]([C@@H](C)CC)OC(=O)[C@H](C(C)(C)O)N(C)C(=O)[C@H](CC(C)C)NC(=O)[C@H](C(C)C)N(C)C1=O (cyclo(F[X12]PI[NMeV]L[NMeVal(β-OH)][Hmp(2R,3S)][NMeV])) |  |  |
| < 2.5 |  | CC[C@H](C)[C@@H]1NC(=O)[C@@H]2CCCN2C(=O)[C@H](Cc2ccc(-c3cccnc3)cc2)N(C)C(=O)[C@H](Cc2ccccc2)NC(=O)[C@H](C(C)C)N(C)C(=O)[C@@H]([C@@H](C)CC)OC(=O)[C@H](C(C)(C)O)N(C)C(=O)[C@H](CC(C)C)NC(=O)[C@H](C(C)C)N(C)C1=O (cyclo(F[X11]PI[NMeV]L[NMeVal(β-OH)][Hmp(2R,3S)][NMeV])) |  | Active |
| > 5 |  | CCCCCC/C=C/c1cccc(C[C@H]2C(=O)N3CCC[C@H]3C(=O)N[C@@H]([C@@H](C)CC)C(=O)N(C)[C@@H](C(C)C)C(=O)N[C@@H](CC(C)C)C(=O)N(C)[C@@H](C(C)(C)O)C(=O)O[C@H]([C@@H](C)CC)C(=O)N(C)[C@@H](C(C)C)C(=O)N[C@@H](Cc3ccccc3)C(=O)N2C)c1 (cyclo(F[X10]PI[NMeV]L[NMeVal(β-OH)][Hmp(2R,3S)][NMeV])) |  |  |
| < 1.25 | < 0.025 | CC[C@H](C)[C@@H]1NC(=O)[C@@H]2CCCN2C(=O)[C@H](Cc2cccc(-c3ccc(Cl)nc3)c2)N(C)C(=O)[C@H](Cc2ccccc2)NC(=O)[C@H](C(C)C)N(C)C(=O)[C@@H]([C@@H](C)CC)OC(=O)[C@H](C(C)(C)O)N(C)C(=O)[C@H](CC(C)C)NC(=O)[C@H](C(C)C)N(C)C1=O (cyclo(F[X8]PI[NMeV]L[NMeVal(β-OH)][Hmp(2R,3S)][NMeV])) | > 10 |  |
| 10 (≈ 8.71 µM) | 5 (≈ 4.35 µM) | CC[C@H](C)[C@@H]1NC(=O)[C@@H]2CCCN2C(=O)[C@H](Cc2cccc(Br)c2)N(C)C(=O)[C@H](CC(=O)O)NC(=O)[C@H](C(C)C)N(C)C(=O)[C@@H]([C@@H](C)CC)OC(=O)[C@H](C(C)(C)O)N(C)C(=O)[C@H](CC(C)C)NC(=O)[C@H](C(C)C)N(C)C1=O (cyclo(D[NMePhe(3-Br)]PI[NMeV]L[NMeVal(β-OH)][Hmp(2R,3S)][NMeV])) |  |  |
|  | 5 (≈ 4.14 µM) | CC[C@H](C)[C@@H]1NC(=O)[C@@H]2CCCN2C(=O)[C@H](Cc2cccc(-c3ccc(OC)cc3)c2)N(C)C(=O)[C@H](Cc2ccccc2)NC(=O)[C@H](C(C)C)N(C)C(=O)[C@@H]([C@@H](C)CC)OC(=O)[C@H](C(C)(C)O)N(C)C(=O)[C@H](CC(C)C)NC(=O)[C@H](C(C)C)N(C)C1=O (cyclo(F[X13]PI[NMeV]L[NMeVal(β-OH)][Hmp(2R,3S)][NMeV])) |  |  |
| > 5 | 2.5 (≈ 2.04 µM) | CC[C@H](C)[C@@H]1NC(=O)[C@@H]2CCCN2C(=O)[C@H](Cc2cccc(I)c2)N(C)C(=O)[C@H](Cc2ccccc2)NC(=O)[C@H](C(C)C)N(C)C(=O)[C@@H]([C@@H](C)CC)OC(=O)[C@H](C(C)(C)O)N(C)C(=O)[C@H](CC(C)C)NC(=O)[C@H](C(C)C)N(C)C1=O (cyclo(F[NMePhe(3-I)]PI[NMeV]L[NMeVal(β-OH)][Hmp(2R,3S)][NMeV])) |  |  |
| > 5 | < 5 | CC[C@H](C)[C@@H]1NC(=O)[C@@H]2CCCN2C(=O)[C@H](Cc2cccc(-c3ccc(-c4ccccc4)cc3)c2)N(C)C(=O)[C@H](Cc2ccccc2)NC(=O)[C@H](C(C)C)N(C)C(=O)[C@@H]([C@@H](C)CC)OC(=O)[C@H](C(C)(C)O)N(C)C(=O)[C@H](CC(C)C)NC(=O)[C@H](C(C)C)N(C)C1=O (cyclo(F[X4]PI[NMeV]L[NMeVal(β-OH)][Hmp(2R,3S)][NMeV])) |  |  |
